Source: patent US5710174A, “Factor XIIIA inhibitor” (Zymo Genetics, Inc., priority 1995, dated 1998)

How the values were obtained:
[1] = tested on: FVIIa; assay: FVIIa inhibition assay; assay type: biochemical; conditions: up to 100 μM, absorbance at 405 nm
Protocol: (§1) For the FVIIa, FXa and thrombin inhibition assays described below, an inhibition assay buffer containing 50 mM Tris, 5 mM CaCl2, 150 mM NaCl, 0.1% Tween 20, and 0.1% BSA (albumin, bovine, Sigma fraction V (Sigma)) at about pH 8.0 was used 2. For each of the inhibition assays, the total reaction volume was 100 μl and the assays were performed in 96-well plates.
For the FVIIa inhibition assay, about 30 μl of inhibition assay buffer, 25 μl of 20 nM recombinant FVIIa (Walt Kiesel, University of New Mexico), and 10 μl of one of a series of dilutions of ZG-1400a were added to plate wells. The ZG-1400a was prepared in 10% DMSO and tested using half-log dilutions, starting at a final assay concentration of 100 μM and diluting to 1 nM. A negative (no inhibition) control contained 30 μl inhibition assay buffer, 25 μl of 20 nM FVIIa, and enough DMSO to give a 1% final DMSO concentration.
The test and control wells were incubated for about 10 min at room temperature. After incubation, 25 μl of 20 nM tissue factor (Walt Kiesel, University of New Mexico) was added to the wells and incubated for a second 10 min period at room temperature. […]
(§2) This determination was made by reading absorbance at 405 nm on a ThermoMax microplate reader.

[2] = tested on: Factor IX (FIX); assay: Factor IX inhibition assay; assay type: biochemical; conditions: up to 100 μM, absorbance at 405 nm
Protocol: 60 μl buffer, 10 μl of 40 nM FIX, and 10 μl of one of a series of dilutions of ZG-1400a were added to plate wells. The buffer contained 150 mM NaCl, 5 mM CaCl2, 25 mM Tris, pH 8.0, and 0.1% polyethyleneglycol (PEG). The ZG-1400a was prepared in 10% DMSO and tested using half-log dilutions, starting at a final assay concentration of 100 μM and diluting to 1 nM. A negative (no inhibition) control contained 60 μl buffer, 10 μl of 40 nM FIX, and enough DMSO to give a 1% final DMSO concentration.
The test and control wells were incubated approximately 10 min at room temperature. After incubation, approximately 10 μl of a mixture containing 200 nM FX (Walt Kiesel, University of New Mexico), 500 pM FVIII (Novo Nordisk) and 10 μM PCPS (phosphatidylcholine:phosphatidylserine (Sigma) in a 1:1 ratio) was added to each well. Then 10 μl of 1 mM S2765 substrate (Kabi) was added to each well.
In this assay, FIX converts FX to FXa. […] This determination was made by reading absorbance at 405 nm on a ThermoMax microplate reader.

[3] = tested on: plasma clots; assay: Plasma clot lysis assay; parameters: species or system human; conditions: 100 μM; for % Plasma Clot lysis: clots formed about 20 h, plasminogen and urokinase about 4 h
Protocol: For this assay, 50 μl of one of a series of concentrations of iodoacetic acid, cerulenin, or ZG-1400a was added to 0.5 ml human citrated plasma (prepared from one blood donor) in 5 ml polypropylene tubes. The ZG-1400a and iodoacetic acid were individually prepared in 10% DMSO and tested using half-log dilutions, starting at a final assay concentration of 100 μM and diluting to 10 μM. Cerulenin was prepared in 10% ethanol and tested using half-log dilutions, starting at a final assay concentration of 100 μM and diluting to 10 μM.
Approximately 10^6 cpm ^125 I-fibrinogen (Amersham), 50 mM CaCl2 (20 mM above citrate concentration) and 5 units thrombin (bovine, Enzyme Research Labs) were added to each test and control tube. The tubes were incubated while rocking for 20 h at 37° C. Plasma clots formed in the tubes were washed three times with about 1 ml phosphate buffered saline (PBS). The plasma clots in each tube were counted after the PBS washes.
Approximately 2 ml of 50 mM Tris, pH 7.4, containing 50 mM NaCl, 28 μg plasminogen (human, Calbiochem), and 280 ng urokinase (human, Calbiochem) were added to the clots in test and control tubes. At 1, 2, and 4 h intervals, 25 μl aliquots of the samples were removed from each tube and counted.
The values shown in Table 3 represent the amount of lysis after plasma clots were formed for about 20 h and exposed to plasminogen and urokinase for about 4 h.

[4] = tested on: thrombin; assay: Thrombin inhibition assay; assay type: biochemical, bovine; conditions: up to 100 μM, absorbance at 405 nm
Protocol: as §1
(§3) About 30 μl inhibition assay buffer, 50 μl of 2 μg/ml thrombin (bovine, Enzyme Research Labs), and 10 μl of one of a series of dilutions of ZG-1400a were added to plate wells. The ZG-1400a was prepared in 10% DMSO and tested using half-log dilutions, starting at a final assay concentration of 100 μM and diluting to 1 nM. A negative (no inhibition) control contained 30 μl inhibition assay buffer, 50 μl of 2 μg/ml thrombin, and enough DMSO to give a 1% final DMSO concentration.
The test and control wells were incubated for about 10 min at room temperature. After the incubation period, 20 μl of 1 mM SPECTROZYME TH (H-D-hexahydrotyrosyl-L-alanyl-L-arginine-p-nitroanilide-diacetate salt, American Diagnostica, Inc., New York, N.Y.) was added to each well.
as §2

[5] = tested on: Factor Xa (FXa); assay: Factor Xa inhibition assay; assay type: biochemical; conditions: up to 100 μM, absorbance at 405 nm
Protocol: as §1
as §3, with “10 nM FXa” for “2 μg/ml thrombin (bovine, Enzyme Research Labs),”, “10 nM FXa,” for “2 μg/ml thrombin,”
The test and control wells were incubated for about 10 min at room temperature. After the incubation period, 10 mM N-α-benzyloxycarbonyl-D-arginine-L-glycyl-L-arginyl-p-nitroanilide-dihydrochloride (S2765 substrate, Kabi) was added to each well.
as §2

[6] = Solubility in ethanol / DMSO; assay type: physicochemical

Row | SMILES | inhibition of FVIIa activity [1] | inhibition of FIX activity [2] | susceptibility of plasma clots to lysis by plasminogen and urokinase [3] | % Plasma Clot lysis [3] | inhibition of thrombin activity [4] | inhibition of FXa activity [5] | solubility [6]
1 | C[C@@H]1CCC/C=C\C(=O)Cc2cc(O)cc(O)c2C(=O)O1 [ZG-1400, R(-) enantiomer of cis-resorcylide] | not even the highest concentration of ZG-1400a assayed (100 μM) inhibited FVIIa activity | Not even the highest concentration of ZG-1400a assayed (100 μM) inhibited FIX activity | significantly more susceptible to lysis | 46% | not even the highest concentration of ZG-1400a assayed (100 μM) inhibited thrombin activity | not even the highest concentration of ZG-1400a assayed (100 μM) inhibited FXa activity | 
2 | CC=CCC=CCCC(=O)C1OC1C(N)=O (stereo not drawn) [Cerulenin, 2,3-epoxy-4-oxo-7,10-dodecadienamide] |  |  | significantly more susceptible to lysis | 97% |  |  | soluble in ethanol, but not DMSO
